Source: patent publication US12679838B2, “Aromatic compound and application thereof in antitumor drug” (Shanghai Zheye Biotechnology Co., Ltd., priority 2020, dated 2026)
Read-outs that look alike come from different tables or passages of the source. One block for each molecule: values may come before it.

Experiments:
MIA PaCa-2 cells = assay: Cell proliferation inhibitory activity, MIA PaCa-2 (CellTiter-Glo); assay type: cell-based; conditions: for IC50: Homo sapiens, MIA PaCa-2 cells, 72 hours
Method: (§1) MIA PaCa-2 cells in an exponential growth phase were digested with trypsin-EDTA and plated in a 96-well plate at 2000-3000 cells per well and incubated overnight at 37° C. with 5% CO2. A test compound was prepared as a mother liquor with DMSO, diluted with a DMEM growth medium in a concentration gradient and added to the 96-well plate and incubated for 72 hours at 37° C. in a 5% CO2 incubator. After incubation, an equal volume of CellTiter-Glo detection reagent was added to each well and incubated after shaking, and a chemiluminescence value was measured by a microplate reader, and the IC50 value for the inhibition of MIA PaCa-2 cell proliferation was fitted and calculated by GraphPad Prism software.

NCI-H358 cells = assay: Cell proliferation inhibitory activity, NCI-H358 (CellTiter-Glo); assay type: cell-based; conditions: for IC50: Homo sapiens
Method: as §1, with “NCI-H358” for “MIA PaCa-2”, “RPMI 1640” for “DMEM”
The inhibitory effect of the compounds on the proliferation activity of H358 cells was tested with reference to the method of the biological test 2, and the results were as follows:
The inhibitory effect of the compounds on the proliferation activity of NCI-H358 cells was tested with reference to the method of the biological test 2, and the results were as follows.

[1] = test system: NCI-H358 tumor cells xenograft; assay: Pharmacodynamics test of xenograft tumor model of NCI-H358 in nude mice; assay type: in vivo, Balb/c Nude mice; conditions: NCI-H358 xenograft, 100 mg/kg, QD×15 days, oral gavage
Method: Animal species and number: Balb/c Nude; 6 animals per group.
Samples for testing: compound 3-2M, compound 3-16M, TM-1, TM-3, and AMG510 (obtained by purchasing).
Test groups: blank solvent control group; compound 3-2M (100 mg/kg, QD×15 days), compound 3-16M (100 mg/kg, QD×15 days), TM-1 (100 mg/kg, QD×15 days), TM-3 (100 mg/kg, QD×15 days); and AMG510 (100 mg/kg, QD×15 days).
Animal model establishment: NCI-H358 tumor cells at logarithmic phase were cultured and collected in vitro, and inoculated subcutaneously on the right side of the back of nude mice at a quantity of 5×10^6 cells/each, and the tumor-bearing nude mice were randomly grouped when the tumor volume grew to 150-300 mm^3. Subsequently, each group of animals was administered and the day of the first administration was defined as day 1 of the test.
Administration route and frequency: oral gavage; and once a day.
General state observation: observation time and frequency: once a day; observation index or content: including, but is not limited to local administration, appearance and signs, general behavioral activities, mental status, death and other abnormal manifestations of the animals. The animals were euthanized at the end of the test.
Tumor volume calculation: V=½×long diameter× short diameter^2 (mm^3). Tumor growth inhibition ratio TGI (%) was used to evaluate the tumor suppressive efficacy of the compounds. TGI (%)=[1-(mean tumor volume at the end of administration of the treatment group−mean tumor volume at the beginning of administration of the treatment group)/(mean tumor volume at the end of administration of the control group−mean tumor volume at the beginning of administration of the control group)]×100%.

[2] = test system: Langendorff isolated perfused heart; assay: In vitro isolated heart perfusion test (Langendorff); set-up: species or system Guinea pig; conditions: 3.3 μM
From the text: Test method: influences of Langendorff isolated perfused heart test compounds on electrocardiogram, wherein the test method used in this test was as follows: [table] Test compounds: compound 3-2M and the compound in Example 41 of patent WO2018217651A1 (i.e., AMG510).

NCI-H358 = assay: Cell proliferation inhibitory activity of NCI-H358, 3D model test (agarose colony formation); assay type: cell-based; conditions: Homo sapiens, NCI-H358; agarose gel, colony formation, NBT staining
Method: 100 μl of high concentration agarose gel was spread in a 96-well plate as a bottom agarose gel layer; low concentration agarose and growth medium containing cells were mixed and spread on the bottom agarose gel layer, cooled and solidified and incubated overnight at 37° C.; a test compound was prepared into a mother liquor with DMSO, diluted with a RPMI 1640 growth medium in a concentration gradient, and the gradient diluted solution of the compound to be tested with different concentrations was added into 96 wells containing upper agarose gel cells, and solvent control wells were set and placed in a carbon dioxide incubator for culture. During the period, the drug-containing medium was changed to observe the cell growth. After the culture, the cells were stained with NBT, the number of colony formation was counted, and the IC50 value of the compound inhibiting cell proliferation was obtained.

[3] = NCI-H358, 72 h, biological test 2, NCI-H358 cells, 72 hours, read-out: Cell proliferation inhibitory activity IC50 value of H358
[4] = NCI-H358, biological test 3, H358 cells, read-out: Cell proliferation inhibitory activity IC50 value of H358
[5] = NCI-H358, biological test 7, NCI-H358 cells, read-out: Cell proliferation inhibitory activity IC50 value of NCI-H358

SMILES: C=CC(=O)N1CCN(c2nc(=O)n(-c3c(C)ccnc3C(C)C)c3nc(-c4c(F)cccc4C=O)c(Cl)cc23)[C@@H](C)C1 [Compound 3-6]
cell proliferation inhibitory activity against KRAS G12C mutant cells MIA PaCa-2 (in words) (MIA PaCa-2 cells): significant cell proliferation inhibitory activities | IC50 (MIA PaCa-2 cells): < 50 nM | cell proliferation inhibitory activity against KRAS G12C mutant cells NCI-H358 (in words) (NCI-H358 cells): significant cell proliferation inhibitory activities

IC50 (MIA PaCa-2 cells): < 50 nM
SMILES: C=CC(=O)N1C[C@H](C)N(c2nc(=O)n(-c3c(C)ccnc3C(C)C)c3nc(-c4ccccc4C=O)c(Cl)cc23)C[C@H]1C [Compound 3-17M]
cell proliferation inhibitory activity against KRAS G12C mutant cells MIA PaCa-2 (in words) (MIA PaCa-2 cells): significant cell proliferation inhibitory activities

IC50 (NCI-H358 cells; [3]): ≤ 50 nM
SMILES: [2H]C(=O)c1ccccc1-c1nc2c(cc1Cl)c(N1[C@@H](C)CN(C(=O)C=C)C[C@@H]1C)nc(=O)n2-c1c(C)ccnc1C(C)C [Compound 3-14]
cell proliferation inhibitory activity against KRAS G12C mutant cells NCI-H358 (in words) (NCI-H358 cells): significant cell proliferation inhibitory activities

IC50 (NCI-H358): 9.3 nM
SMILES: C=CC(=O)N1CCN(c2nc(=O)n(-c3c(C)ccnc3C(C)C)c3nc(-c4c(O)cccc4F)c(F)cc23)[C@@H](C)C1 [AMG510, reference compound]
Tumor suppression ratio (%) [1]: +++ (“+++” represents that the tumor suppression ratio is between 101% and 140%) | effect on the heart rate of the isolated heart (in words) [2]: significant effect on reducing the heart rate | HR (heart rate) change % ([2]; Guinea pig isolated heart): C (“C” represents that the heart rate decreases by greater than or equal to 15%)

IC50 (MIA PaCa-2 cells): < 50 nM
SMILES: C=CC(=O)N1C[C@H](C)N(c2nc(=O)n(-c3c(C)ccnc3C(C)C)c3nc(-c4c(F)cccc4C=O)c(Cl)cc23)C[C@H]1C [Compound 3-19M]
cell proliferation inhibitory activity against KRAS G12C mutant cells MIA PaCa-2 (in words) (MIA PaCa-2 cells): significant cell proliferation inhibitory activities

IC50 (NCI-H358 cells; [4]): < 50 nM
SMILES: C=CC(=[18O])N1CCN(c2nc(=O)n(-c3c(CC)ccnc3C(C)C)c3nc(-c4ccccc4C=O)c(Cl)cc23)[C@@H](C)C1 [Compound 3-2MIS]
cell proliferation inhibitory activity against KRAS G12C mutant cells NCI-H358 (in words) (NCI-H358 cells): significant cell proliferation inhibitory activities

IC50 (NCI-H358 cells; [4]): < 50 nM
SMILES: C=CC(=[18O])N1CCN(c2nc(=O)n(-c3c(C)ccnc3C(C)C)c3nc(-c4c(F)cccc4C=O)c(Cl)cc23)[C@@H](C)C1 [Compound 3-3MIS]
cell proliferation inhibitory activity against KRAS G12C mutant cells NCI-H358 (in words) (NCI-H358 cells): significant cell proliferation inhibitory activities

IC50 (NCI-H358 cells; [4]): < 50 nM
SMILES: C=CC(=[18O])N1C[C@H](C)N(c2nc(=O)n(-c3c(C)ccnc3C(C)C)c3nc(-c4ccccc4C=O)c(Cl)cc23)[C@@H](C)C1 [Compound 3-4MIS]
cell proliferation inhibitory activity against KRAS G12C mutant cells NCI-H358 (in words) (NCI-H358 cells): significant cell proliferation inhibitory activities

IC50 (NCI-H358 cells; [4]): < 50 nM
SMILES: [2H]C(=O)c1ccccc1-c1nc2c(cc1Cl)c(N1[C@@H](C)CN(C(=[18O])C=C)C[C@@H]1C)nc(=O)n2-c1c(C)ccnc1C(C)C [Compound 3-8MIS]
cell proliferation inhibitory activity against KRAS G12C mutant cells NCI-H358 (in words) (NCI-H358 cells): significant cell proliferation inhibitory activities

IC50 (NCI-H358 cells; [3]): ≤ 50 nM
SMILES: [2H]C(=O)c1ccccc1-c1nc2c(cc1Cl)c(N1CCN(C(=O)C=C)C[C@]1([2H])C)nc(=O)n2-c1c(C)ccnc1C(C)C [Compound 3-28M]
cell proliferation inhibitory activity against KRAS G12C mutant cells NCI-H358 (in words) (NCI-H358 cells): significant cell proliferation inhibitory activities

IC50 (NCI-H358 cells; [3]): ≤ 50 nM | IC50 (NCI-H358 cells; [5]): < 50 nM
SMILES: [2H]C(=O)c1ccccc1-c1nc2c(cc1Cl)c(N1CCN(C(=O)C=C)C[C@@H]1C)nc(=O)n2-c1c(CC)ccnc1C(C)C [Compound 3-6B]
cell proliferation inhibitory activity against KRAS G12C mutant cells NCI-H358 (in words) (NCI-H358 cells): significant cell proliferation inhibitory activities

IC50 (NCI-H358 cells; [4]): < 50 nM
SMILES: [2H]C(=O)c1ccccc1-c1nc2c(cc1Cl)c(N1CCN(C(=[18O])C=C)C[C@@H]1C)nc(=O)n2-c1c(C)ccnc1C(C)C [Compound 3-5MIS]
cell proliferation inhibitory activity against KRAS G12C mutant cells NCI-H358 (in words) (NCI-H358 cells): significant cell proliferation inhibitory activities

SMILES: C=CC(=O)N1CCN(c2nc(=O)n(-c3c(C)ccnc3C(C)C)c3nc(-c4ccccc4C=O)c(Cl)cc23)[C@@H](C)C1 [Compound 3-2]
cell proliferation inhibitory activity against KRAS G12C mutant cells MIA PaCa-2 (in words) (MIA PaCa-2 cells): significant cell proliferation inhibitory activities | IC50 (MIA PaCa-2 cells): < 50 nM | cell proliferation inhibitory activity against KRAS G12C mutant cells NCI-H358 (in words) (NCI-H358 cells): significant cell proliferation inhibitory activities | IC50 (NCI-H358 cells; [3]): ≤ 50 nM

IC50 (NCI-H358 cells; [5]): > 150 nM
SMILES: C=CC(=O)N1C[C@H](C)N(c2nc(=O)n(-c3c(C)ccnc3C(C)C)c3nc(-c4ccccc4C(=O)O)c(Cl)cc23)C[C@H]1C [TM-3, reference compound]
Tumor suppression ratio (%) [1]: + (“+” represents that the tumor suppression ratio is less than 60%)

IC50 (NCI-H358 cells; [4]): < 50 nM
SMILES: [2H]C(=O)c1ccccc1-c1nc2c(cc1Cl)c(N1CCN(C(=[18O])C=C)C[C@@H]1C)nc(=O)n2-c1c(CC)ccnc1C(C)C [Compound 3-6MIS]
cell proliferation inhibitory activity against KRAS G12C mutant cells NCI-H358 (in words) (NCI-H358 cells): significant cell proliferation inhibitory activities

IC50 (NCI-H358 cells; [4]): < 50 nM
SMILES: C=CC(=[18O])N1CCN(c2nc(=O)n(-c3c(C)ccnc3C(C)C)c3nc(-c4ccccc4C=O)c(Cl)cc23)[C@@H](C)C1 [Compound 3-1MIS]
cell proliferation inhibitory activity against KRAS G12C mutant cells NCI-H358 (in words) (NCI-H358 cells): significant cell proliferation inhibitory activities

IC50 (NCI-H358 cells; [5]): 50 to 150 nM
SMILES: C=CC(=O)N1CCN(c2nc(=O)n(-c3c(C)ccnc3C(C)C)c3nc(-c4ccccc4C(C)=O)c(Cl)cc23)[C@@H](C)C1 [TM-1, reference compound]
Tumor suppression ratio (%) [1]: ++ (“++” represents that the tumor suppression ratio is between 60% and 100%)

SMILES: C=CC(=O)N1CCN(c2nc(=O)n(-c3c(C)ccnc3C(C)C)c3nc(-c4c(F)cccc4C=O)c(Cl)cc23)[C@@H](C)C1 [Compound 3-6P]
IC50 (NCI-H358 cells; [3]): > 50 nM

IC50 (NCI-H358 cells; [5]): > 150 nM
SMILES: C=CC(=O)N1C[C@H](C)N(c2nc(=O)n(-c3c(C)ccnc3C(C)C)c3nc(-c4ccccc4C(N)=O)c(Cl)cc23)C[C@H]1C [TM-2, reference compound]

IC50 (NCI-H358 cells; [5]): < 50 nM
SMILES: C=CC(=O)N1CCN(c2nc(=O)n(-c3c(C(C)C)ncnc3C(C)C)c3nc(-c4ccccc4C=O)c(Cl)cc23)[C@@H](C)C1 [Compound 3-31]
cell proliferation inhibitory activity against KRAS G12C mutant cells NCI-H358 (in words) (NCI-H358 cells): significant cell proliferation inhibitory activities

IC50 (NCI-H358 cells; [4]): < 50 nM
SMILES: [2H]C(=O)c1cccc(F)c1-c1nc2c(cc1Cl)c(N1CCN(C(=[18O])C=C)C[C@@H]1C)nc(=O)n2-c1c(C)ccnc1C(C)C [Compound 3-7MIS]
cell proliferation inhibitory activity against KRAS G12C mutant cells NCI-H358 (in words) (NCI-H358 cells): significant cell proliferation inhibitory activities
